In publication PMC5299059 (Cell metabolism, 2017):

Key:
BRAF V600E [1] = target: T1, BRAF V600E (Homo sapiens, UniProt P15056, V600E); assay: […]-acetoacetate competition binding
BRAF V600D [2] = target: T2, BRAF V600D (Homo sapiens, UniProt P15056, V600D); assay: […]-acetoacetate competition binding
BRAF V600R [3] = target: T3, BRAF V600R (Homo sapiens, UniProt P15056, V600R); assay: […]-acetoacetate competition binding
BRAF V600E [4] = target: T1, BRAF V600E; assay: […]-labeled acetoacetate radiometric binding to purified bead-bound BRAF
BRAF V600D [5] = target: T2, BRAF V600D; assay: as above
BRAF V600R [6] = target: T3, BRAF V600R; assay: as above

T3 sequence (P15056 whole entry V600R): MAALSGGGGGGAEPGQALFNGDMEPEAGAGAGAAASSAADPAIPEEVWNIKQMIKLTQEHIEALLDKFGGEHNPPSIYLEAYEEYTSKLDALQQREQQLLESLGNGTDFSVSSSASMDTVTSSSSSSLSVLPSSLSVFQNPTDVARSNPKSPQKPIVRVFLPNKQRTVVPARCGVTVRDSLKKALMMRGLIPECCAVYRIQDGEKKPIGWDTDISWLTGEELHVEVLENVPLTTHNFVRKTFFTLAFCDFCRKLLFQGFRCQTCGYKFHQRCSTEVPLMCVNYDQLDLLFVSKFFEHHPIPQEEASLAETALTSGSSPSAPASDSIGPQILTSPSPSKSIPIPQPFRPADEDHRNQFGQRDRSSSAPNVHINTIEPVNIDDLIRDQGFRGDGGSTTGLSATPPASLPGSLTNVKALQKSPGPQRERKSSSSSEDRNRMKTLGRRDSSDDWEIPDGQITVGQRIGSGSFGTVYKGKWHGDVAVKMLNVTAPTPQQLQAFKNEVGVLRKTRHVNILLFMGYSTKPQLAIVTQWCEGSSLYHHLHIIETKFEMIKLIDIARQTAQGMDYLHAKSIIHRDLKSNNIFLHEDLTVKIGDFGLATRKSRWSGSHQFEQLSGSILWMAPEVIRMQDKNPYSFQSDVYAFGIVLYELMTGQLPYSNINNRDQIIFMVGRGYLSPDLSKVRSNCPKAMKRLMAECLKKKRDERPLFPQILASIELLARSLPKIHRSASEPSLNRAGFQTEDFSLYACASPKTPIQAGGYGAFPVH
T1 sequence (P15056 2-766 V600E): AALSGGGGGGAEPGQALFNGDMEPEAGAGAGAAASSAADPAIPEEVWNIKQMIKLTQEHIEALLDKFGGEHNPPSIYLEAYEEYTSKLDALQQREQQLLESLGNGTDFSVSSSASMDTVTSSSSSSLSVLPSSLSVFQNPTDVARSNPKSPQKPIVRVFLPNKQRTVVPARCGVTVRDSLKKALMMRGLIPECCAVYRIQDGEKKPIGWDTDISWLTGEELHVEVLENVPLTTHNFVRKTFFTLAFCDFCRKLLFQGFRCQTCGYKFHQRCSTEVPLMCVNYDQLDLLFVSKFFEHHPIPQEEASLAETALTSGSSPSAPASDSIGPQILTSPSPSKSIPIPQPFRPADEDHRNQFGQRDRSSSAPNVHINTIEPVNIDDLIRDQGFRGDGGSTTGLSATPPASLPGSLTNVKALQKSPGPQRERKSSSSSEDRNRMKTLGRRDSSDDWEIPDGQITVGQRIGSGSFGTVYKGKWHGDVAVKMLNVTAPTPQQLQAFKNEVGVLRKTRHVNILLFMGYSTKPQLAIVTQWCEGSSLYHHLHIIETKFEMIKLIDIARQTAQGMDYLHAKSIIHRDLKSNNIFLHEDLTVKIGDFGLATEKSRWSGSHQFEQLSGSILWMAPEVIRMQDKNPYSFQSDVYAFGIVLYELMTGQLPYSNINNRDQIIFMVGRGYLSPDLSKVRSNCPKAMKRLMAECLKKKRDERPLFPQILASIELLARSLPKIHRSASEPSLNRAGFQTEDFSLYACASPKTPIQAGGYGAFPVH
T2 sequence (P15056 whole entry V600D): as the sequence (P15056 whole entry V600R) above, with R600D counted along it

Kd (BRAF V600E [4]) | Kd (BRAF V600D [5]) | Kd (BRAF V600R [6]) | SMILES | Ki (BRAF V600E [1]) | Ki (BRAF V600D [2]) | Ki (BRAF V600R [3])
 |  |  | CC(=O)C1C(=O)C=C(C)OC1=O (stereo not drawn) [DHAA, dehydroacetic acid] | ~88 µM | ~88 µM | ~91 µM
~92 µM | ~93 µM | ~113 µM | CC(=O)CC(=O)O [AA, acetoacetate] |  |  | 
